# Laboratory results taken from article PMC5218480 (PLoS ONE, 2017).
# Test system: MV-4-11 cells
# Test: Gene expression microarray analysis (Affymetrix PrimeView) and GSEA
# Assay type: cell-based, human
# Parameters: RFU PODN (11730768_x_at) / Fold change /veh PODN (11730768_x_at) / RFU LINC00158 (11744669_a_at) / Fold change /veh LINC00158 (11744669_a_at) / RFU DUSP10 (11751237_a_at) / Fold change /veh DUSP10 (11751237_a_at) / RFU ID3 (11757404_x_at) / Fold change /veh ID3 (11757404_x_at) / RFU PLEKHG5 (11737974_s_at) / Fold change /veh PLEKHG5 (11737974_s_at) / RFU LRRC4B (11730491_at) / Fold change /veh LRRC4B (11730491_at) / RFU GIMAP4 (11747438_a_at) / Fold change /veh GIMAP4 (11747438_a_at) / RFU KRT8 (11758183_x_at) / Fold change /veh KRT8 (11758183_x_at) / RFU CNN1 (11734310_a_at) / Fold change /veh CNN1 (11734310_a_at) / RFU VPS37D (11726825_at) / Fold change /veh VPS37D (11726825_at) / RFU C10orf10 (11716522_x_at) / Fold change /veh C10orf10 (11716522_x_at) / RFU KIR2DL2 /// KIR2DL4 /// KIR2DL5A /// KIR2DL5B /// KIR2DS1 /// KIR2DS2 /// KIR2DS3 /// KIR2DS4 /// KIR3DL3 /// KIR3DL3 /// KIR3DS1 (11738374_at) / Fold change /veh KIR2DL2 /// KIR2DL4 /// KIR2DL5A /// KIR2DL5B /// KIR2DS1 /// KIR2DS2 /// KIR2DS3 /// KIR2DS4 /// KIR3DL3 /// KIR3DL3 /// KIR3DS1 (11738374_at) / RFU C1QL1 (11718748_at) / Fold change /veh C1QL1 (11718748_at) / RFU TMPRSS4 (11747572_a_at) / Fold change /veh TMPRSS4 (11747572_a_at) / RFU HAMP (11756126_x_at) / Fold change /veh HAMP (11756126_x_at) / RFU RNFT2 (11725882_a_at) / Fold change /veh RNFT2 (11725882_a_at) / RFU NR4A2 (11747474_a_at) / Fold change /veh NR4A2 (11747474_a_at) / RFU ABCC12 (11746883_a_at) / Fold change /veh ABCC12 (11746883_a_at) / RFU TMEM136 (11760407_x_at) / Fold change /veh TMEM136 (11760407_x_at) / RFU CLDN22 /// WWC2 (11732394_at) / Fold change /veh CLDN22 /// WWC2 (11732394_at) / RFU HLA-DPB1 (11760878_x_at) / Fold change /veh HLA-DPB1 (11760878_x_at) / RFU SPINT1 (11716480_a_at) / Fold change /veh SPINT1 (11716480_a_at) / RFU GAP43 (11754022_s_at) / Fold change /veh GAP43 (11754022_s_at) / RFU A4GNT (11735810_at) / Fold change /veh A4GNT (11735810_at) / RFU PRB3 (11715151_x_at) / Fold change /veh PRB3 (11715151_x_at) / RFU TUBB4B (11761932_at) / Fold change /veh TUBB4B (11761932_at) / RFU CAPN14 (11732068_a_at) / Fold change /veh CAPN14 (11732068_a_at) / RFU TMCC2 (11721928_a_at) / Fold change /veh TMCC2 (11721928_a_at) / RFU IRGQ (11745062_a_at) / Fold change /veh IRGQ (11745062_a_at) / RFU FAM174B (11720279_a_at) / Fold change /veh FAM174B (11720279_a_at) / RFU TMPRSS4 (11748680_a_at) / Fold change /veh TMPRSS4 (11748680_a_at) / RFU FAM212B (11763350_a_at) / Fold change /veh FAM212B (11763350_a_at) / RFU PLEKHG5 (11743358_a_at) / Fold change /veh PLEKHG5 (11743358_a_at) / RFU ZSCAN30 (11745921_a_at) / Fold change /veh ZSCAN30 (11745921_a_at) / RFU CMKLR1 (11741424_a_at) / Fold change /veh CMKLR1 (11741424_a_at) / RFU LOC101060620 /// MAPK8IP1 (11723275_at) / Fold change /veh LOC101060620 /// MAPK8IP1 (11723275_at) / RFU SPTSSB (11747773_x_at) / Fold change /veh SPTSSB (11747773_x_at) / RFU PRSS12 (11739890_at) / Fold change /veh PRSS12 (11739890_at) / RFU BIN1 (11741810_x_at) / Fold change /veh BIN1 (11741810_x_at) / RFU WNT11 (11732464_a_at) / Fold change /veh WNT11 (11732464_a_at) / RFU C10orf10 (11716521_a_at) / Fold change /veh C10orf10 (11716521_a_at) / RFU C5orf56 (11738089_at) / Fold change /veh C5orf56 (11738089_at) / RFU CYB561 (11721691_x_at) / Fold change /veh CYB561 (11721691_x_at) / RFU ANKRD19P (11752326_a_at) / Fold change /veh ANKRD19P (11752326_a_at) / RFU OR2T12 /// OR2T33 /// OR2T8 (11738714_s_at) / Fold change /veh OR2T12 /// OR2T33 /// OR2T8 (11738714_s_at) / RFU VCAN (11748164_a_at) / Fold change /veh VCAN (11748164_a_at) / RFU JSRP1 (11732532_at) / Fold change /veh JSRP1 (11732532_at) / RFU KRTAP10-11 (11738290_x_at) / Fold change /veh KRTAP10-11 (11738290_x_at) / RFU MYO3A (11730013_a_at) / Fold change /veh MYO3A (11730013_a_at) / RFU EBF3 (11725865_a_at) / Fold change /veh EBF3 (11725865_a_at) / RFU CAMK2N1 (11719241_x_at) / Fold change /veh CAMK2N1 (11719241_x_at) / RFU C5orf56 (11738088_a_at) / Fold change /veh C5orf56 (11738088_a_at) / RFU OLFML3 (11715873_a_at) / Fold change /veh OLFML3 (11715873_a_at) / RFU LOC100653217 /// NTM (11731650_a_at) / Fold change /veh LOC100653217 /// NTM (11731650_a_at) / RFU MAPK11 (11762145_a_at) / Fold change /veh MAPK11 (11762145_a_at) / RFU FIZ1 (11724087_x_at) / Fold change /veh FIZ1 (11724087_x_at) / RFU OASL (11726364_x_at) / Fold change /veh OASL (11726364_x_at) / RFU SOX15 (11748057_x_at) / Fold change /veh SOX15 (11748057_x_at) / RFU CD79A (11719716_a_at) / Fold change /veh CD79A (11719716_a_at) / RFU HIST1H1D (11736915_at) / Fold change /veh HIST1H1D (11736915_at) / RFU CASKIN2 (11723855_a_at) / Fold change /veh CASKIN2 (11723855_a_at) / RFU LOC730098 (11760151_x_at) / Fold change /veh LOC730098 (11760151_x_at) / RFU OR4N2 (11742367_at) / Fold change /veh OR4N2 (11742367_at) / RFU PRRT2 (11749266_a_at) / Fold change /veh PRRT2 (11749266_a_at) / RFU SNX32 (11753110_a_at) / Fold change /veh SNX32 (11753110_a_at) / RFU CDHR5 (11726645_a_at) / Fold change /veh CDHR5 (11726645_a_at) / RFU RCAN1 (11760418_a_at) / Fold change /veh RCAN1 (11760418_a_at) / RFU FAM167A (11723789_a_at) / Fold change /veh FAM167A (11723789_a_at) / RFU FAM26E (11764081_at) / Fold change /veh FAM26E (11764081_at) / RFU ISYNA1 (11749810_s_at) / Fold change /veh ISYNA1 (11749810_s_at) / RFU ACY1 (11761880_at) / Fold change /veh ACY1 (11761880_at) / RFU 11764098_at / Fold change /veh 11764098_at / RFU SAMD14 (11745864_x_at) / Fold change /veh SAMD14 (11745864_x_at) / RFU NPB (11741838_a_at) / Fold change /veh NPB (11741838_a_at) / RFU TMPRSS6 (11731388_a_at) / Fold change /veh TMPRSS6 (11731388_a_at) / RFU KRTAP10-2 (11738614_at) / Fold change /veh KRTAP10-2 (11738614_at) / RFU ARHGAP8 /// PRR5-ARHGAP8 (11727945_x_at) / Fold change /veh ARHGAP8 /// PRR5-ARHGAP8 (11727945_x_at) / RFU KRTAP5-7 /// NADSYN1 (11734609_at) / Fold change /veh KRTAP5-7 /// NADSYN1 (11734609_at) / RFU RASL12 (11751679_a_at) / Fold change /veh RASL12 (11751679_a_at) / RFU CDKN2B (11736163_a_at) / Fold change /veh CDKN2B (11736163_a_at) / RFU PRF1 (11729649_at) / Fold change /veh PRF1 (11729649_at) / RFU, ZNF638 /// ZNF638-IT1 / Fold change vs veh, ZNF638 /// ZNF638-IT1 / RFU, PANK3 / Fold change vs veh, PANK3 / RFU, SH3YL1 / Fold change vs veh, SH3YL1 / RFU, ZEB2 / Fold change vs veh, ZEB2 / RFU, NRIP1 / Fold change vs veh, NRIP1 / RFU, PTTG1IP / Fold change vs veh, PTTG1IP / RFU, CAPN2 / Fold change vs veh, CAPN2 / RFU, MED14 / Fold change vs veh, MED14 / RFU, SNORA58 / Fold change vs veh, SNORA58 / RFU, C1orf63 / Fold change vs veh, C1orf63 / RFU, LRRFIP1 / Fold change vs veh, LRRFIP1 / RFU, NDUFAF7 / Fold change vs veh, NDUFAF7 / RFU, SLC12A2 / Fold change vs veh, SLC12A2 / RFU, IBTK / Fold change vs veh, IBTK / RFU, ESF1 / Fold change vs veh, ESF1 / Fold change vs veh, TMEM50B / RFU, TAOK1 / Fold change vs veh, TAOK1 / RFU, ACBD3 / Fold change vs veh, ACBD3 / RFU, TMA16 / Fold change vs veh, TMA16 / RFU, RWDD3 / Fold change vs veh, RWDD3 / RFU, BCAT1 / Fold change vs veh, BCAT1 / RFU, EDEM3 / Fold change vs veh, EDEM3 / RFU, TMEM33 / Fold change vs veh, TMEM33 / RFU, WDR75 / Fold change vs veh, WDR75 / RFU, AHCTF1 / Fold change vs veh, AHCTF1 / RFU, TFRC / Fold change vs veh, TFRC / RFU, ZDHHC17 / Fold change vs veh, ZDHHC17 / RFU, NOM1 / Fold change vs veh, NOM1 / RFU, ARL8B / Fold change vs veh, ARL8B / RFU, ZBTB11 / Fold change vs veh, ZBTB11 / RFU, TAMM41 / Fold change vs veh, TAMM41 / RFU, KIAA1704 /// LOC100996395 / Fold change vs veh, KIAA1704 /// LOC100996395 / RFU, ING1 / Fold change vs veh, ING1 / RFU, TRMT61B / Fold change vs veh, TRMT61B / RFU, FUBP3 / Fold change vs veh, FUBP3 / RFU, TP53 / Fold change vs veh, TP53 / RFU, TNKS2 / Fold change vs veh, TNKS2 / RFU, ZFP14 / Fold change vs veh, ZFP14 / RFU, ACTR2 / Fold change vs veh, ACTR2 / RFU, PPP3R1 / Fold change vs veh, PPP3R1 / RFU, PIK3R1 / Fold change vs veh, PIK3R1 / RFU, HNRNPA1 / Fold change vs veh, HNRNPA1 / RFU, RNF170 / Fold change vs veh, RNF170 / RFU, ZNF28 / Fold change vs veh, ZNF28 / RFU, RNGTT / Fold change vs veh, RNGTT / RFU, OGT / Fold change vs veh, OGT / RFU, BRD1 / Fold change vs veh, BRD1 / RFU, MARS / Fold change vs veh, MARS / RFU, ZNF655 / Fold change vs veh, ZNF655 / RFU, FAHD1 / Fold change vs veh, FAHD1 / RFU, BDP1 / Fold change vs veh, BDP1 / RFU, LRRCC1 / Fold change vs veh, LRRCC1 / RFU, ARID1A / Fold change vs veh, ARID1A / RFU, ZNF146 / Fold change vs veh, ZNF146 / RFU, ZNF330 / Fold change vs veh, ZNF330 / RFU, GPN3 / Fold change vs veh, GPN3 / RFU, C9orf123 / Fold change vs veh, C9orf123 / RFU, N4BP2L2 / Fold change vs veh, N4BP2L2 / RFU, ARFIP1 / Fold change vs veh, ARFIP1 / RFU, FAM179B / Fold change vs veh, FAM179B / RFU, BCL10 / Fold change vs veh, BCL10 / RFU, UHRF1BP1L / Fold change vs veh, UHRF1BP1L / RFU, BET1 / Fold change vs veh, BET1 / RFU, CNOT2 / Fold change vs veh, CNOT2 / RFU, ZNF268 / Fold change vs veh, ZNF268 / Fold change vs veh, ZNF507 / RFU, DGCR2 / Fold change vs veh, DGCR2 / RFU, WDSUB1 / Fold change vs veh, WDSUB1 / Fold change vs veh, HSP90B1 /// MIR3652 / RFU, ADSS / Fold change vs veh, ADSS / RFU, GK / Fold change vs veh, GK / RFU, ZNF148 / Fold change vs veh, ZNF148 / RFU, TAF9 / Fold change vs veh, TAF9 / RFU, SLC1A5 / Fold change vs veh, SLC1A5 / RFU, SLMO2 / Fold change vs veh, SLMO2 / RFU, ABCC4 / Fold change vs veh, ABCC4 / RFU, LOC101060439 /// RAP1B / Fold change vs veh, LOC101060439 /// RAP1B / RFU, RFX7 / Fold change vs veh, RFX7 / RFU, GTPBP10 / Fold change vs veh, GTPBP10 / RFU, CNEP1R1 / Fold change vs veh, CNEP1R1 / RFU, BIVM-ERCC5 /// ERCC5 / Fold change vs veh, BIVM-ERCC5 /// ERCC5 / RFU, ILF3 / Fold change vs veh, ILF3 / RFU 11762660_at / Fold change /veh 11762660_at / RFU VCAN (11757783_s_at) / Fold change /veh VCAN (11757783_s_at) / RFU DDX43 (11728927_at) / Fold change /veh DDX43 (11728927_at) / RFU KRT8 (11758188_x_at) / Fold change /veh KRT8 (11758188_x_at) / RFU NKD1 (11759106_at) / Fold change /veh NKD1 (11759106_at) / RFU SRD5A1 (11742802_a_at) / Fold change /veh SRD5A1 (11742802_a_at) / RFU TPSAB1 /// TPSB2 (11721975_s_at) / Fold change /veh TPSAB1 /// TPSB2 (11721975_s_at) / RFU GSTM3 (11746129_a_at) / Fold change /veh GSTM3 (11746129_a_at) / RFU IL23R (11737362_x_at) / Fold change /veh IL23R (11737362_x_at) / RFU TMEM51 (11727254_a_at) / Fold change /veh TMEM51 (11727254_a_at) / RFU PIWIL2 (11732686_x_at) / Fold change /veh PIWIL2 (11732686_x_at) / RFU ORM1 (11744905_x_at) / Fold change /veh ORM1 (11744905_x_at) / RFU CCDC152 (11743942_at) / Fold change /veh CCDC152 (11743942_at) / RFU ECM1 (11717891_a_at) / Fold change /veh ECM1 (11717891_a_at) / RFU IL23R (11748794_a_at) / Fold change /veh IL23R (11748794_a_at) / RFU TNFAIP8L3 (11732012_x_at) / Fold change /veh TNFAIP8L3 (11732012_x_at) / RFU MBOAT4 (11741988_at) / Fold change /veh MBOAT4 (11741988_at) / RFU 11764193_at / Fold change /veh 11764193_at / RFU TMEM53 (11763286_at) / Fold change /veh TMEM53 (11763286_at) / RFU MAGEB2 (11727129_at) / Fold change /veh MAGEB2 (11727129_at) / RFU TMEM200A (11744735_a_at) / Fold change /veh TMEM200A (11744735_a_at) / RFU CCDC152 (11751479_a_at) / Fold change /veh CCDC152 (11751479_a_at) / RFU FAM211A (11726209_a_at) / Fold change /veh FAM211A (11726209_a_at) / RFU RGS16 (11746705_a_at) / Fold change /veh RGS16 (11746705_a_at) / RFU VCAN (11755009_s_at) / Fold change /veh VCAN (11755009_s_at) / RFU RHOB (11743442_s_at) / Fold change /veh RHOB (11743442_s_at) / RFU RGS16 (11720943_a_at) / Fold change /veh RGS16 (11720943_a_at) / RFU RGS16 (11720944_at) / Fold change /veh RGS16 (11720944_at) / RFU, VPS4B / Fold change vs veh, VPS4B / RFU, CREB1 / Fold change vs veh, CREB1 / RFU, DNAJC13 / Fold change vs veh, DNAJC13 / RFU, GNAQ / Fold change vs veh, GNAQ / RFU, CDK5R1 / Fold change vs veh, CDK5R1 / RFU, ZRANB3 / Fold change vs veh, ZRANB3 / RFU, CUL4A / Fold change vs veh, CUL4A / RFU, CCNY / Fold change vs veh, CCNY / RFU, UFL1 / Fold change vs veh, UFL1 / RFU, COG3 / Fold change vs veh, COG3 / RFU, DIAPH2 / Fold change vs veh, DIAPH2 / RFU, SKA2 / Fold change vs veh, SKA2 / RFU, AFF3 / Fold change vs veh, AFF3 / RFU, LMF1 / Fold change vs veh, LMF1 / RFU, IPO11 / Fold change vs veh, IPO11 / RFU, DFFB / Fold change vs veh, DFFB / RFU, FOXP1 / Fold change vs veh, FOXP1 / RFU, CARD8 / Fold change vs veh, CARD8 / RFU, STRN3 / Fold change vs veh, STRN3 / RFU, ADK / Fold change vs veh, ADK / RFU, RASSF2 / Fold change vs veh, RASSF2 / RFU, WIPF1 / Fold change vs veh, WIPF1 / RFU, LARP1B / Fold change vs veh, LARP1B / RFU, RASA1 / Fold change vs veh, RASA1 / RFU, RB1 / Fold change vs veh, RB1 / RFU, PPFIA1 / Fold change vs veh, PPFIA1 / RFU, MAT2A / Fold change vs veh, MAT2A / RFU, CCT5 / Fold change vs veh, CCT5 / RFU, WDR92 / Fold change vs veh, WDR92 / RFU, CUX1 / Fold change vs veh, CUX1 / RFU, TTC7A / Fold change vs veh, TTC7A / RFU, TMEM135 / Fold change vs veh, TMEM135 / RFU, DEPTOR / Fold change vs veh, DEPTOR / RFU, CPM / Fold change vs veh, CPM / RFU, DNAJB6 / Fold change vs veh, DNAJB6 / RFU, CACNA2D3 / Fold change vs veh, CACNA2D3 / RFU, DTX4 / Fold change vs veh, DTX4 / RFU, TFCP2 / Fold change vs veh, TFCP2 / RFU, GMCL1 /// GMCL1P1 / Fold change vs veh, GMCL1 /// GMCL1P1 / RFU, AEBP2 / Fold change vs veh, AEBP2 / RFU, SNHG1 /// SNORD22 /// SNORD25 /// SNORD26 /// SNORD27 /// SNORD28 /// SNORD29 /// SNORD31 / Fold change vs veh, SNHG1 /// SNORD22 /// SNORD25 /// SNORD26 /// SNORD27 /// SNORD28 /// SNORD29 /// SNORD31 / Fold change (Aza/veh), C12orf56 (ProbeSet 11735607_a_at) / Fold change (ACY-1035/veh), C12orf56 (ProbeSet 11735607_a_at) / Fold change (Aza/veh), FGFR1OP (ProbeSet 11751329_s_at) / Fold change (ACY-1035/veh), FGFR1OP (ProbeSet 11751329_s_at) / Fold change (Aza/veh), VPS36 (ProbeSet 11739960_a_at) / Fold change (ACY-1035/veh), VPS36 (ProbeSet 11739960_a_at) / RFU SYPL1 (11715823_x_at) / Fold change /veh SYPL1 (11715823_x_at) / RFU IGFBP7 (11715501_s_at) / Fold change /veh IGFBP7 (11715501_s_at) / RFU REEP3 (11722064_at) / Fold change /veh REEP3 (11722064_at) / RFU IGLL1 (11728026_x_at) / Fold change /veh IGLL1 (11728026_x_at): dose or concentration left out as unconfirmed
# Settings: MV-4-11 cells, 48 hours
smiles,measurement,value
Nc1ncn([C@@H]2O[C@H](CO)[C@@H](O)[C@H]2O)c(=O)n1 [azacitidine],RFU C10orf10 (11716522_x_at),45.56 RFU
